Experimental data: patent US20240383915A1, “OXAZEPINE COMPOUNDS AND USES THEREOF IN THE TREATMENT OF CANCER” (Genentech, Inc., priority 2021, published 2024)

How the values were obtained:
SW480 cells = test: SW480 proliferation assay; format: cell-based; settings: Homo sapiens, SW480, SW480; read-out: SW480 Prolif IC50 (G12V)
KRas(G12V) = KRas(G12V) (Homo sapiens (Human), UniProt P01116, G12V); test: KRas(G12V) GDP HTRF (BODIPY-GDP exchange TR-FRET); format: biochemical
PC-9 cells = test: PC9 proliferation assay; format: cell-based, human; settings: Homo sapiens, PC-9, PC9; read-out: PC9 Prolif IC50 (G12V)
KRas = KRas (Homo sapiens (Human), UniProt P01116); test: KRas GDP HTRF (BODIPY-GDP exchange TR-FRET); format: biochemical
KRas, sequence (P01116-2 other isoform, or with tags, fused parts or gaps): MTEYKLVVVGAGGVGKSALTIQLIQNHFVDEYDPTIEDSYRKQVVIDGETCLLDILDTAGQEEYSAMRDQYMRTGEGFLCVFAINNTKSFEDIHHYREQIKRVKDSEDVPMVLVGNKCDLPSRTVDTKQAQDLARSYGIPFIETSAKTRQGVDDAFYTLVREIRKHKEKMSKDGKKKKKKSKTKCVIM
How it was run: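 Inhibition of SOS1-mediated exchange of BODIPY-GDP on KRAS G12D, started with 3 nM recombinant human SOS1 and 300 nM BODIPY-GDP and read after 60 min. TR-FRET excitation 337 nm, ratio 520/490 nm ×10,000. IC50 from 4-parameter Hill fit of normalized data.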

KRas(G12V), sequence (P01116-2 other isoform, or with tags, fused parts or gaps G12V): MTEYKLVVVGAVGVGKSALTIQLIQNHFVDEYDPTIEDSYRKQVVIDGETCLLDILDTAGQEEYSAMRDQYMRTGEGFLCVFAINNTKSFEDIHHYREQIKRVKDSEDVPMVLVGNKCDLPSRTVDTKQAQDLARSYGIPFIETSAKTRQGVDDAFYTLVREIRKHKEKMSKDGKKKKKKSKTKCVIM

SMILES | IC50 (SW480 cells) [nM] | IC50 (KRas(G12V)) [nM] | IC50 (PC-9 cells) [nM] | IC50 (KRas) [nM]
Cc1cc(N)nc(-c2c(Cl)c3c4c(nc(OC[C@@H]5C[C@@H]6C[N@@]5CCO6)nc4c2F)N([C@H](C)c2cccnc2N)CCO3)c1C(F)(F)F (atropisomer, axis not shown) [Example 92a, 6-((R)-2-(((1R,5R,7S)-4-oxa-1-azabicyclo[3.2.1]octan-7-yl)methoxy)-4-((R)-1-(2-aminopyridin-3-yl)ethyl)-8-chloro-10-fluoro-5,6-dihydro-4H-[1,4]oxazepino[5,6,7-de]quinazolin-9-yl)-4-methyl-5-(trifluoromethyl)pyridin-2-amine] | 37 | 0.07 | 1800 | 0.0648
Cc1cc(N)nc(-c2c(Cl)c3c4c(nc(OC[C@H]5C[C@@H]6C[N@@]5CCO6)nc4c2F)N([C@H](C)c2cccnc2N)CCO3)c1C(F)(F)F (atropisomer, axis not shown) [Example 92b, 6-((R)-2-(((1R,5R,7R)-4-oxa-1-azabicyclo[3.2.1]octan-7-yl)methoxy)-4-((R)-1-(2-aminopyridin-3-yl)ethyl)-8-chloro-10-fluoro-5,6-dihydro-4H-[1,4]oxazepino[5,6,7-de]quinazolin-9-yl)-4-methyl-5-(trifluoromethyl)pyridin-2-amine] | 700 | 0.31 | 6000 | 1.89
Cc1cc(N)nc(-c2c(Cl)c3c4c(nc(OC[C@@H]5C[C@@H](F)CN5C)nc4c2F)N([C@H](C)c2cccnc2N)CCO3)c1C(F)(F)F (atropisomer, axis not shown) [Example 106, 6-((R)-4-((R)-1-(2-aminopyridin-3-yl)ethyl)-8-chloro-10-fluoro-2-(((2S,4R)-4-fluoro-1-methylpyrrolidin-2-yl)methoxy)-5,6-dihydro-4H-[1,4]oxazepino[5,6,7-de]quinazolin-9-yl)-4-methyl-5-(trifluoromethyl)pyridin-2-amine] | 9.4 | 0.13 | 970 | 0.14
Cc1cc(N)nc(-c2c(Cl)c3c4c(nc(OC[C@@H]5CCN5CC(F)F)nc4c2F)N([C@H](C)c2cccnc2N)CCO3)c1C(F)(F)F (atropisomer, axis not shown) [Example 109, 6-((R)-4-((R)-1-(2-aminopyridin-3-yl)ethyl)-8-chloro-2-(((S)-1-(2,2-difluoroethyl)azetidin-2-yl)methoxy)-10-fluoro-5,6-dihydro-4H-[1,4]oxazepino[5,6,7-de]quinazolin-9-yl)-4-methyl-5-(trifluoromethyl)pyridin-2-amine] | 2.8 | 0.18 | 13000 | 0.222
Cc1cc(N)nc(-c2c(Cl)c3c4c(nc(OC[C@@]56CCCN5C[C@]5(CC5(F)F)C6)nc4c2F)N([C@H](C)c2cccnc2N)CCO3)c1C(F)(F)F (atropisomer, axis not shown) [Example 111a, 6-((R)-4-((R)-1-(2-aminopyridin-3-yl)ethyl)-8-chloro-2-(((1R,7a′S)-2,2-difluorodihydro-1′H,3′H-spiro[cyclopropane-1,2′-pyrrolizin]-7a′(5′H)-yl)methoxy)-10-fluoro-5,6-dihydro-4H-[1,4]oxazepino[5,6,7-de]quinazolin-9-yl)-4-methyl-5-(trifluoromethyl)pyridin-2-amine] | 1.8 | 0.36 | 7400 | 0.85
Cc1cc(N)nc(-c2c(Cl)c3c4c(nc(OC[C@@H]5CC(F)(F)CN5C)nc4c2F)N([C@H](C)c2cccnc2N)CCO3)c1C(F)(F)F (atropisomer, axis not shown) [Example 112, 6-((R)-4-((R)-1-(2-aminopyridin-3-yl)ethyl)-8-chloro-2-(((S)-4,4-difluoro-1-methylpyrrolidin-2-yl)methoxy)-10-fluoro-5,6-dihydro-4H-[1,4]oxazepino[5,6,7-de]quinazolin-9-yl)-4-methyl-5-(trifluoromethyl)pyridin-2-amine] | 1.8 | 0.2 | 4300 | 0.32
Cc1cc(N)nc(-c2c(Cl)c3c4c(nc(OC[C@@]56CCN5CC(F)(F)C6)nc4c2F)N([C@H](C)c2cccnc2N)CCO3)c1C(F)(F)F (atropisomer, axis not shown) [Example 114a, 6-((R)-4-((R)-1-(2-aminopyridin-3-yl)ethyl)-8-chloro-2-(((S)-3,3-difluoro-1-azabicyclo[3.2.0]heptan-5-yl)methoxy)-10-fluoro-5,6-dihydro-4H-[1,4]oxazepino[5,6,7-de]quinazolin-9-yl)-4-methyl-5-(trifluoromethyl)pyridin-2-amine] | 3.2 | 0.24 | 7000 | 0.39
Cc1cc(N)nc(-c2c(Cl)c3c4c(nc(OC[C@]56CCN5CC(F)(F)C6)nc4c2F)N([C@H](C)c2cccnc2N)CCO3)c1C(F)(F)F (atropisomer, axis not shown) [Example 114b, 6-((R)-4-((R)-1-(2-aminopyridin-3-yl)ethyl)-8-chloro-2-(((R)-3,3-difluoro-1-azabicyclo[3.2.0]heptan-5-yl)methoxy)-10-fluoro-5,6-dihydro-4H-[1,4]oxazepino[5,6,7-de]quinazolin-9-yl)-4-methyl-5-(trifluoromethyl)pyridin-2-amine] | 3 | 0.22 | 7600 | 0.46
Cc1cc(N)nc(-c2c(Cl)c3c4c(nc(OC[C@@H]5CCCN5CC(F)F)nc4c2F)N([C@H](C)c2cccnc2N)CCO3)c1C(F)(F)F (atropisomer, axis not shown) [Example 115, 6-((R)-4-((R)-1-(2-aminopyridin-3-yl)ethyl)-8-chloro-2-(((S)-1-(2,2-difluoroethyl)pyrrolidin-2-yl)methoxy)-10-fluoro-5,6-dihydro-4H-[1,4]oxazepino[5,6,7-de]quinazolin-9-yl)-4-methyl-5-(trifluoromethyl)pyridin-2-amine] | 16 | 0.47 | 15000 | 0.9
C=C1CN2CCC[C@@]2(COc2nc3c4c(c(Cl)c(-c5nc(N)cc(C)c5C(F)(F)F)c(F)c4n2)OCCN3[C@H](C)c2cccnc2N)C1 (atropisomer, axis not shown) [Example 116, 6-((R)-4-((R)-1-(2-aminopyridin-3-yl)ethyl)-8-chloro-10-fluoro-2-(((S)-2-methylenetetrahydro-1H-pyrrolizin-7a(5H)-yl)methoxy)-5,6-dihydro-4H-[1,4]oxazepino[5,6,7-de]quinazolin-9-yl)-4-methyl-5-(trifluoromethyl)pyridin-2-amine] | 4.6 | 0.074 | 1600 | 0.0519
Cc1cc(N)nc(-c2c(Cl)c3c4c(nc(OC[C@@H]5CCCN5C5COC5)nc4c2F)N([C@H](C)c2cccnc2N)CCO3)c1C(F)(F)F (atropisomer, axis not shown) [Example 117, 6-((R)-4-((R)-1-(2-aminopyridin-3-yl)ethyl)-8-chloro-10-fluoro-2-(((S)-1-(oxetan-3-yl)pyrrolidin-2-yl)methoxy)-5,6-dihydro-4H-[1,4]oxazepino[5,6,7-de]quinazolin-9-yl)-4-methyl-5-(trifluoromethyl)pyridin-2-amine] | 12 | 0.08 | 6300 | 0.18
Cc1cc(N)nc(-c2c(Cl)c3c4c(nc(OC[C@@H]5CCC(=O)N5)nc4c2F)N([C@H](C)c2cccnc2N)CCO3)c1C(F)(F)F (atropisomer, axis not shown) [Example 121, (S)-5-((((R)-9-(6-amino-4-methyl-3-(trifluoromethyl)pyridin-2-yl)-4-((R)-1-(2-aminopyridin-3-yl)ethyl)-8-chloro-10-fluoro-5,6-dihydro-4H-[1,4]oxazepino[5,6,7-de]quinazolin-2-yl)oxy)methyl)pyrrolidin-2-one] | 1100 | 0.07 | 4900 | 0.437
Cc1cc(N)nc(-c2c(Cl)c3c4c(nc(OC[C@]5(C)CC(F)(F)CN5C)nc4c2F)N([C@H](C)c2cccnc2N)CCO3)c1C(F)(F)F (atropisomer, axis not shown) [Example 122a, 6-((R)-4-((R)-1-(2-aminopyridin-3-yl)ethyl)-8-chloro-2-(((S)-4,4-difluoro-1,2-dimethylpyrrolidin-2-yl)methoxy)-10-fluoro-5,6-dihydro-4H-[1,4]oxazepino[5,6,7-de]quinazolin-9-yl)-4-methyl-5-(trifluoromethyl)pyridin-2-amine] | 180 | 0.5 | 2900 | 4.49
Cc1cc(N)nc(-c2c(Cl)c3c4c(nc(OC[C@@]5(C)CC(F)(F)CN5C)nc4c2F)N([C@H](C)c2cccnc2N)CCO3)c1C(F)(F)F (atropisomer, axis not shown) [Example 122b, 6-((R)-4-((R)-1-(2-aminopyridin-3-yl)ethyl)-8-chloro-2-(((R)-4,4-difluoro-1,2-dimethylpyrrolidin-2-yl)methoxy)-10-fluoro-5,6-dihydro-4H-[1,4]oxazepino[5,6,7-de]quinazolin-9-yl)-4-methyl-5-(trifluoromethyl)pyridin-2-amine] | 17 | 0.095 | 9400 | 0.202
Cc1cc(N)nc(-c2c(Cl)c3c4c(nc(OC[C@H]5CN(C)CCO5)nc4c2F)N([C@H](C)c2cccnc2N)CCO3)c1C(F)(F)F (atropisomer, axis not shown) [Example 124, 6-((R)-4-((R)-1-(2-aminopyridin-3-yl)ethyl)-8-chloro-10-fluoro-2-(((R)-4-methylmorpholin-2-yl)methoxy)-5,6-dihydro-4H-[1,4]oxazepino[5,6,7-de]quinazolin-9-yl)-4-methyl-5-(trifluoromethyl)pyridin-2-amine] | 70 | 0.1 | 2700 | 0.204
